According to patent publication US20050027003A1, “Methods of therapeutic treatment using retinoids with reduced side effects” (Allergan, Inc., priority 2003, published 2005):
Like-named read-outs stand apart in the source and are kept apart here. Blank lines part the entries; values can stand above or below the molecule they belong to.

Key:
[1] = in vivo; cited from earlier work
[2] = in vivo; cited from earlier work; remark: listed apart in the source
[3] = tested on: patients; settings: published data (N = 525); cited from earlier work
[4] = oral; cited from earlier work
[5] = tested on: patients; settings: published data (N = 525); cited from earlier work; remark: listed apart in the source
[6] = tested on: RARs; assay: Activation of and selectivity among the retinoic acid receptors; type: cell-based; settings: relative to all-trans-retinoic acid, the natural ligand
Description: (§1) The selection of a retinoid component useful in accordance with the present invention can be accomplished using straightforward, conventional testing and/or assays, such as the transactivation assays set forth in Evans et al., U.S. Pat. Nos., 5,217,867; 5,262,300; 5,310,662; and 5,906,920, each of which is hereby incorporated in its entirety herein by reference, which are well known in the art. Such testing and/or assays can identify suitable useful retinoid components without undue experimentation.
(§2) Other well known and straightforward test methods and/or assays may be employed to determine the selectivity or specificity of an RAR active compound to RAR-alpha, RAR-beta and RAR-gamma. For example, using conventional and well known assays, for example, such as set forth in Klein et al. U.S. Pat. No. 5,776,699, the disclosure of which is incorporated in its entirety herein by reference, and/or the above-noted Evans et al. patents, the selectively or specificity of a compound to RAR-alpha, RAR-beta and RAR-gamma can be determined. Based on the results of such assays, one can determine whether or not a compound is useful in accordance with one or more aspects of the present invention.

[7] = biological target: T1, RAR-α (Homo sapiens, UniProt P10276); assay: RAR-α activity; type: cell-based
T1 sequence (P10276 1-462): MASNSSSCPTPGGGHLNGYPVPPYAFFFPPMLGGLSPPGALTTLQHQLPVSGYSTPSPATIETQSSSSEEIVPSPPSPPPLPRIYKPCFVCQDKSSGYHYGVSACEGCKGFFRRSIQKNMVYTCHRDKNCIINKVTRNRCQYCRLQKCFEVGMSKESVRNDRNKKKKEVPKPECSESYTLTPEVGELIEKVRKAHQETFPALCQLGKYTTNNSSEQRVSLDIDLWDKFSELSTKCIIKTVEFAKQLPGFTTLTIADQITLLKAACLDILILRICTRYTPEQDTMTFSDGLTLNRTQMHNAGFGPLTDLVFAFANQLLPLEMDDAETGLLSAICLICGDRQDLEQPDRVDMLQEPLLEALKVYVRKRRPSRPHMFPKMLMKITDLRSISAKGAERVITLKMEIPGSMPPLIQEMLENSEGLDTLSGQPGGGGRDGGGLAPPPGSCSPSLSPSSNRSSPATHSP
Description: as §1, §2

[8] = Example 1: 6.3 mg oral tazarotene with high-fat meal vs 8-10 hour fast, pharmacokinetics; type: in vivo, human
Experimental: (§3) The LC-MS/MS test for simultaneous detection of tazarotene and tazarotenic acid may be run as follows. One ml of plasma (EDTA-treated) is diluted with 1.0 ml of water. Diluted plasma is extracted using solid phase extraction (SPE) on a C18 cartridge. The eluate is evaporated, reconstituted in a water/methanol-based mobile phase, and injected onto a 4.6×50 mm, 3 μm pore size C-8 reverse phase high pressure liquid chromatography (HPLC) column (Agilent, Wilmington, Del.). Compounds are gradient-eluted at 1.2 mL/min and detected using an API 3000 triple quadrupole mass spectrometer with an Atmospheric Pressure Chemical Ionization (APCI) source (PE-Sciex, Concord, Ontario, Canada). Molecular reaction monitoring enhances the sensitivity and selectivity of this assay by collisionally dissociating the protonated molecules for the analyte and an internal standard thereby forming the product ions. The specific precursor-product ion pair monitored are m/z 352→324 for tazarotene, m/z 359→331 for the tazarotene internal standard, m/z 324→294 for tazarotenic acid, and m/z 331+298 for the tazarotenic acid internal standard. The lower limit of quantitation at assay range tested is 0.1 ng/mL, with a coefficient of variation and deviation from nominal concentration of <15%.

[9] = Example 7: effect of body weight on plasma tazarotenic acid Cmax and AUC; type: in vivo, human; settings: 6 mg tazarotene daily
Experimental: as §3, with “<15%. […]” for “<15%.”

SMILES: COc1cc(C)c(/C=C/C(C)=C/C=C/C(C)=C/C(=O)O)c(C)c1C [acitretin]
bioavailability vs body weight [1]: increased with a reduced body weight | interaction with coadministered contraceptives [2]: interferes with the contraceptive effect | Adverse event: Alopecia [3]: 319 (60.8) number (%) of patients | Adverse event: Arthralgia [3]: 102 (19.4) number (%) of patients | Adverse event: Atrophy of skin [3]: 64 (12.2) number (%) of patients | Adverse event: Back pain [3]: 41 (7.8) number (%) of patients | Adverse event: Cheilitis [3]: 429 (81.7) number (%) of patients | Adverse event: Dry Skin [3]: 174 (33.1) number (%) of patients | Adverse event: Dry mouth/Oral dryness [3]: 76 (14.5) number (%) of patients | Adverse event: Epistaxis [3]: 61 (11.6) number (%) of patients | Adverse event: Erythematous rash/Erythema [3]: 57 (10.9) number (%) of patients | Adverse event: Hyperesthesia [3]: 66 (12.6) number (%) of patients | Adverse event: Nail Disorder [3]: 170 (32.4) number (%) of patients | Adverse event: Paresthesia [3]: 56 (10.7) number (%) of patients | Adverse event: Paronychia/Nail disorder [3]: 66 (12.6) number (%) of patients | Adverse event: Pruritus [3]: 157 (29.9) number (%) of patients | Adverse event: Rhinitis [3]: 153 (29.1) number (%) of patients | Adverse event: Rigors/Chills [3]: 67 (12.8) number (%) of patients | Adverse event: Skin peeling/Desquamation [3]: 345 (65.7) number (%) of patients | Adverse event: Sticky skin/Skin disorder [3]: 129 (24.6) number (%) of patients | Adverse event: Xerophthalmia/Eye disorder [3]: 112 (21.3) number (%) of patients

SMILES: CCOC(=O)/C=C(C)/C=C/C=C(C)/C=C/c1c(C)cc(OC)c(C)c1C [etretinate]
bioavailability vs body weight [1]: increased with a reduced body weight

SMILES: CC1=C(/C=C/C(C)=C/C=C/C(C)=C\C(=O)O)C(C)(C)CCC1 [isotretinoin]
total dose to reach the same peak blood concentration in the fasted state as following a high fat meal [4]: more than doubled | bioavailability vs body weight [1]: increased with a reduced body weight | interaction with coadministered contraceptives [2]: decreases blood concentrations of both ethinyl estradiol and norethindrone | Adverse event: Cheilitis [5]: 472 (90.2) number (%) of patients | Adverse event: Conjunctivitis [5]: 201 (38.4) number (%) of patients | Adverse event: Desquamation central face/Desquamation [5]: 187 (35.8) number (%) of patients | Adverse event: Dry Skin [5]: 172 (32.9) number (%) of patients | Adverse event: Dry nose [5]: 136 (26.0) number (%) of patients | Adverse event: Epistaxis [5]: 121 (23.1) number (%) of patients | Adverse event: Fingertip peeling/Desquamation [5]: 63 (12.0) number (%) of patients | Adverse event: Headache [5]: 44 (8.4) number (%) of patients | Adverse event: Irritation of eyes [5]: 85 (16.3) number (%) of patients | Adverse event: Joint pain/Arthralgia [5]: 60 (11.5) number (%) of patients | Adverse event: Pruritus [5]: 127 (24.3) number (%) of patients | Adverse event: Rash-dermatitis/Rash [5]: 82 (15.7) number (%) of patients | Adverse event: Red Scaly face/Desquamation [5]: 54 (10.3) number (%) of patients | Adverse event: Skin fragility/Skin disorder [5]: 164 (31.4) number (%) of patients

RAR-α activity [7]: minimal | average ratio of Cmax (test/reference) ([8]; Day 0, high-fat meal vs fasted): 1.00 | effect of high-fat meal on bioavailability or pharmacokinetics ([8]; single and multiple dose): does not substantially affect
SMILES: CC1(C)CCSc2ccc(C#Cc3ccc(C(=O)O)cn3)cc21 [tazarotenic acid]
receptor specificity and selectivity [6]: specificity for the RARs and selectivity for RAR-β and RAR-γ | correlation of AUC with body weight ([9]; day 0): may be a correlation | correlation between either Cmax or AUC and body weight ([9]; day 9): no correlation
